From PubChem BioAssay (NCI)
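Cells were grown in 96-well plates and exposed to each compound for 48 hours at five concentrations; endpoints were interpolated linearly between bracketing concentrations, or set to the highest concentration if not reached. GI50 = concentration required for 50% inhibition of growth. TGI: concentration producing complete growth inhibition.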

Key:
Assay in all cases: NCI tumour cell line growth inhibition, 48 h
COLO 205 colon = tested on: COLO 205 colon
OVCAR-3 ovarian = tested on: OVCAR-3 ovarian
KM12 colon = tested on: KM12 colon
MALME-3M melanoma = tested on: MALME-3M melanoma
BT-549 breast = tested on: BT-549 breast
MDA-MB-468 breast = tested on: MDA-MB-468 breast
ACHN renal = tested on: ACHN renal
SF-268 CNS = tested on: SF-268 CNS
NCI-H460 lung = tested on: NCI-H460 lung
LOX IMVI melanoma = tested on: LOX IMVI melanoma
SK-OV-3 ovarian = tested on: SK-OV-3 ovarian
RXF 393 renal = tested on: RXF 393 renal
A498 renal = tested on: A498 renal
SNB-75 CNS = tested on: SNB-75 CNS
OVCAR-5 ovarian = tested on: OVCAR-5 ovarian
SR leukemia = tested on: SR leukemia
DU-145 prostate = tested on: DU-145 prostate
NCI-H226 lung = tested on: NCI-H226 lung
OVCAR-8 ovarian = tested on: OVCAR-8 ovarian
HCT-116 colon = tested on: HCT-116 colon
CCRF-CEM leukemia = tested on: CCRF-CEM leukemia
SF-295 CNS = tested on: SF-295 CNS
HOP-92 NSCLC = tested on: HOP-92 NSCLC
K-562 leukemia = tested on: K-562 leukemia
RPMI-8226 leukemia = tested on: RPMI-8226 leukemia
SK-MEL-28 melanoma = tested on: SK-MEL-28 melanoma
T-47D breast = tested on: T-47D breast
CAKI-1 renal = tested on: CAKI-1 renal
OVCAR-4 ovarian = tested on: OVCAR-4 ovarian
TK-10 renal = tested on: TK-10 renal
MDA-MB-231 breast = tested on: MDA-MB-231 breast
HT29 colon = tested on: HT29 colon
SK-MEL-5 melanoma = tested on: SK-MEL-5 melanoma
NCI-H522 lung = tested on: NCI-H522 lung
A549 NSCLC = tested on: A549 NSCLC
HCT-15 colon = tested on: HCT-15 colon
HOP-62 NSCLC = tested on: HOP-62 NSCLC
MOLT-4 leukemia = tested on: MOLT-4 leukemia
NCI-H23 lung = tested on: NCI-H23 lung
786-0 renal = tested on: 786-0 renal
UACC-62 melanoma = tested on: UACC-62 melanoma
PC-3 prostate = tested on: PC-3 prostate
SF-539 CNS = tested on: SF-539 CNS
SW-620 colon = tested on: SW-620 colon
IGROV1 ovarian = tested on: IGROV1 ovarian
HL-60(TB) leukemia = tested on: HL-60(TB) leukemia
SNB-19 CNS = tested on: SNB-19 CNS
UACC-257 melanoma = tested on: UACC-257 melanoma
SN12C renal = tested on: SN12C renal
MCF7 breast = tested on: MCF7 breast
U251 CNS = tested on: U251 CNS
HS 578T breast = tested on: HS 578T breast
UO-31 renal = tested on: UO-31 renal
EKVX NSCLC = tested on: EKVX NSCLC
HCC-2998 colon = tested on: HCC-2998 colon

NC(=Nc1ccc(OCCCCCCCCn2cnnn2)cc1)c1ccccc1 gave a GI50 (COLO 205 colon) of 284 nM, a TGI (COLO 205 colon) of 1860 nM and a GI50 (OVCAR-3 ovarian) of 398 nM. The TGI (OVCAR-3 ovarian) was over 52 µM, the GI50 (KM12 colon) was 423 nM and the TGI (KM12 colon) was over 73.1 µM. It also gave a GI50 (MALME-3M melanoma) of 266 nM, a TGI (MALME-3M melanoma) of 18.2 µM and a GI50 (BT-549 breast) of 836 nM. The TGI (BT-549 breast) was 18.8 µM, the GI50 (MDA-MB-468 breast) was 167 nM and the TGI (MDA-MB-468 breast) was 695 nM. It also gave a GI50 (ACHN renal) of 659 nM, a TGI (ACHN renal) of 62 µM and a GI50 (SF-268 CNS) of 6.87 µM. The TGI (SF-268 CNS) was over 79.7 µM, the GI50 (NCI-H460 lung) was 343 nM and the TGI (NCI-H460 lung) was 19 µM. The GI50 (LOX IMVI melanoma) was 488 nM, the TGI (LOX IMVI melanoma) was 13.9 µM and the GI50 (SK-OV-3 ovarian) was 439 nM. It also gave a TGI (SK-OV-3 ovarian) of 35.9 µM, a GI50 (RXF 393 renal) of 216 nM and a TGI (RXF 393 renal) of 752 nM. It also gave a GI50 (A498 renal) of 17.4 µM, a TGI (A498 renal) of 63.4 µM and a GI50 (SNB-75 CNS) of 400 nM. For the same molecule, the TGI (SNB-75 CNS) was 50.2 µM, the GI50 (OVCAR-5 ovarian) was 458 nM and the TGI (OVCAR-5 ovarian) was over 41.5 µM. The GI50 (SR leukemia) was 75.2 nM, the TGI (SR leukemia) was over 50.5 µM and the GI50 (DU-145 prostate) was 438 nM. For the same molecule, the TGI (DU-145 prostate) was over 100 µM, the GI50 (NCI-H226 lung) was 321 nM and the TGI (NCI-H226 lung) was 4.55 µM. For the same molecule, the GI50 (OVCAR-8 ovarian) was 490 nM, the TGI (OVCAR-8 ovarian) was over 64.8 µM and the GI50 (HCT-116 colon) was 353 nM. It also gave a TGI (HCT-116 colon) of 13.8 µM, a GI50 (CCRF-CEM leukemia) of 358 nM and a TGI (CCRF-CEM leukemia) of 38.2 µM. For the same molecule, the GI50 (SF-295 CNS) was 281 nM, the TGI (SF-295 CNS) was 12.4 µM and the GI50 (HOP-92 NSCLC) was 8 µM. For the same molecule, the TGI (HOP-92 NSCLC) was 59.4 µM, the GI50 (K-562 leukemia) was 183 nM and the TGI (K-562 leukemia) was over 55.1 µM. For the same molecule, the GI50 (RPMI-8226 leukemia) was 364 nM, the TGI (RPMI-8226 leukemia) was 19.6 µM and the GI50 (SK-MEL-28 melanoma) was 783 nM. For the same molecule, the TGI (SK-MEL-28 melanoma) was over 49.2 µM, the GI50 (T-47D breast) was 392 nM and the TGI (T-47D breast) was 63.2 µM. For the same molecule, the GI50 (CAKI-1 renal) was 324 nM, the TGI (CAKI-1 renal) was 46.1 µM and the GI50 (OVCAR-4 ovarian) was 12.4 µM. For the same molecule, the TGI (OVCAR-4 ovarian) was over 100 µM, the GI50 (TK-10 renal) was 3.06 µM and the TGI (TK-10 renal) was over 83.7 µM. For the same molecule, the GI50 (MDA-MB-231 breast) was 439 nM, the TGI (MDA-MB-231 breast) was 9.7 µM and the GI50 (HT29 colon) was 269 nM. For the same molecule, the TGI (HT29 colon) was 2260 nM, the GI50 (SK-MEL-5 melanoma) was 282 nM and the TGI (SK-MEL-5 melanoma) was 1420 nM. It also gave a GI50 (NCI-H522 lung) of 201 nM, a TGI (NCI-H522 lung) of 720 nM and a GI50 (A549 NSCLC) of 586 nM. For the same molecule, the TGI (A549 NSCLC) was over 100 µM, the GI50 (HCT-15 colon) was 272 nM and the TGI (HCT-15 colon) was 15.4 µM. For the same molecule, the GI50 (HOP-62 NSCLC) was 439 nM, the TGI (HOP-62 NSCLC) was 18.9 µM and the GI50 (MOLT-4 leukemia) was 460 nM. It also gave a TGI (MOLT-4 leukemia) of over 72.2 µM, a GI50 (NCI-H23 lung) of 436 nM and a TGI (NCI-H23 lung) of 20.1 µM. The GI50 (786-0 renal) was 507 nM, the TGI (786-0 renal) was 30.9 µM and the GI50 (UACC-62 melanoma) was 442 nM. It also gave a TGI (UACC-62 melanoma) of 19.9 µM, a GI50 (PC-3 prostate) of 454 nM and a TGI (PC-3 prostate) of 97.7 µM. It also gave a GI50 (SF-539 CNS) of 223 nM, a TGI (SF-539 CNS) of 606 nM and a GI50 (SW-620 colon) of 352 nM. The TGI (SW-620 colon) was over 100 µM, the GI50 (IGROV1 ovarian) was 717 nM and the TGI (IGROV1 ovarian) was 21.8 µM. The GI50 (HL-60(TB) leukemia) was 246 nM, the TGI (HL-60(TB) leukemia) was 846 nM and the GI50 (SNB-19 CNS) was 594 nM. For the same molecule, the TGI (SNB-19 CNS) was over 100 µM, the GI50 (UACC-257 melanoma) was 8.36 µM and the TGI (UACC-257 melanoma) was over 60 µM. It also gave a GI50 (SN12C renal) of 472 nM, a TGI (SN12C renal) of 18.2 µM and a GI50 (MCF7 breast) of 157 nM. It also gave a TGI (MCF7 breast) of 18.9 µM, a GI50 (U251 CNS) of 383 nM and a TGI (U251 CNS) of over 63.5 µM. For the same molecule, the GI50 (HS 578T breast) was 307 nM, the TGI (HS 578T breast) was 48.8 µM and the GI50 (UO-31 renal) was 555 nM. It also gave a TGI (UO-31 renal) of 40.8 µM, a GI50 (EKVX NSCLC) of 418 nM and a TGI (EKVX NSCLC) of over 100 µM. For the same molecule, the GI50 (HCC-2998 colon) was 494 nM and the TGI (HCC-2998 colon) was 11.7 µM.
